From patent publication US5130300A, “Method for enhancing growth of mammary parenchyma” (Monsanto Company, priority 1987, dated 1992)

Key:
[1] = test system: Quarter-Udders in Pregnant Beef Cows; assay: Intramammary infusion of hEGF or mEGF, quarter-udder weights and DNA (Examples 1-2); assay type: in vivo, cross-bred beef cows; conditions: 25 micrograms per infusion, days 1,3,5,7,9, Freund's emulsion
Protocol: 12 pregnant, non-lactating, cross-bred beef cows within their last 40-80 days of gestation were housed in a free-stall facility, fed a ration of alfalfa hay and pelleted concentrate, and administered 10 ml of an excipient (Freund's Incomplete Adjuvant emulsified with an equal volume of 0.9% sterile saline) into each quarter-udder by intramammary infusion through the streak canal on days 1, 3, 5, 7 and 9 of this study. Infusions were carried out using a 3.2 centimeter long, approximately 12 gauge, blunt-tipped plastic teat infusion cannula obtained from Jorgensen Laboratories, Loveland, Colo. Because front and rear udder halves are not of equal size, treatment vs. control comparisons were made between laterally opposite quarters, i.e., front right vs. front left and rear right vs. rear left. Treatments were randomly assigned to right or left udder-halves, with the contralateral half serving as its control. […] (the other 6 animals).
Prior to treatment, each animal was teatdipped for 3 consecutive days and each teat was pre-cleaned with 70% ethanol in water on the day of treatment. On day 14 the cows were sacrificed and their mammary glands excised. Each udder (milked out if necessary) was skinned, divided along the median suspensory ligament and then into front right, front left, rear right and rear left udder quarters. Each quarter-udder was ground, a representative 200 gm sample was homogenized with 4 times its volume of water, and the total homogenate volume of each was measured.
To determine dry weight of each quarter-udder, three 10 ml aliquots of a 1:5 diluted homogenate were placed in pre-weighed pans, dried overnight at 60° and then dried and weighed to a consistent value.
To determine dry fat-free tissue weight of each quarter-udder, three 5 ml aliquots of the undiluted homogenate were extracted by the method of Anderson, 41 J. Anim. Sci. 118 (1975) except that samples were placed in pre-weighed 25×150 mm glass centrifuge tubes and extracted overnight with 10 ml ethanol:ether (3:1), then centrifuged (5 min at 500 rpm) and the supernatant aspirated; an additional 10 ml aliquot of ethanol:ether was added for a second extraction; and the sample was dried under nitrogen until a consistent value was obtained.
DNA in each quarter-udder was determined by the method of Burton, 12B Methods in Enzymol. 163-66 (1968) using an assay solution of 15% trichloroacetic acid (TCA) in 2N HCl. In these determinations, aliquots of gland homogenate were diluted 1:5 with water and rehomogenized. Using triplicate 0.25 ml or 0.5 ml aliquots of these homogenates, each aliquot was mixed with 2 ml of the assay solution. After 30 min, the samples were centrifuged for 10 min at 3000 rpm and the resulting pellets were washed with 2 ml of a 10% solution of TCA in distilled water. After recentrifugation, the resulting pellets were disrupted in 2 ml of 0.5N perchloric acid and heated for 30 min at 70° to extract DNA. Samples were centrifuged and 1 ml of each resulting supernatant was placed in a 12×75 mm tube. After addition of 2 ml of a solution of 1.5 g diphenylamine and 1.5 ml H2 SO4 in 100 ml glacial acetic acid (and 0.1 ml of 1.6% aqueous acetaldehyde per 20 ml reagent just prior to use), the samples were vortexed and incubated overnight at 27°. Calf thymus DNA was the standard.

[2] = test system: pregnant Holstein heifers; assay: Intramammary infusion until parturition, milk production in first 105 days of lactation (Example 13); assay type: in vivo; conditions: one animal, 250 micrograms hEGF every third day only until 15 days before parturition
Protocol: 48 pregnant Holstein heifers within their last 40 days (approximately) of gestation were housed in a free-stall facility, fed a ration of alfalfa hay and pelleted concentrate, and administered 10 ml of an excipient into each quarter-udder by intramammary infusion through the streak canal every third day until parturition with the exception of one animal which was treated with human EGF as described in this Example only until 15 days before parturition. Infusions were carried out using a 3.2 centimeter long, approximately 12 gauge, blunt-tipped plastic teat infusion cannula obtained from Jorgensen Laboratories, Loveland, Colo. […] In each animal, all 4 quarter-udders received the same treatment. Each udder was sprayed with 70% ethanol and wiped dry prior to treatment and dipped with an iodine solution following treatment. At parturition, 4 animals from each treatment group were sacrificed and their mammary glands were removed for analysis. The other 8 animals from each treatment group were milked normally each a.m. and p.m. for the first 105 days of lactation.

[3] = test system: Quarter-Udders in Pregnant Beef Cows; assay: Intramammary infusion of hEGF, quarter-udder weights and DNA (Examples 7-8); assay type: in vivo, cross-bred beef cows
Excerpt: 24 pregnant, non-lactating, cross-bred beef cows within their last 40-80 days of gestation were randomly divided into 3 treatment groups with 8 animals in each group.

[4] = test system: Quarter-Udders in Pregnant Beef Cows; assay: Intramammary infusion of hEGF, quarter-udder weights and DNA (Examples 3-6); assay type: in vivo, cross-bred beef cows; conditions: for DNA, % Increase, (A-B)/B / DNA, Mean Increase (A-B) / Dry Fat-Free Weight, % Increase, (A-B)/B / Dry Fat-Free Weight, Mean Increase (A-B) / Dry Weight, % Increase, (A-B)/B / Dry Weight, Mean Increase (A-B) / Wet Weight, % Increase, (A-B)/B / Wet Weight, Mean Increase (A-B): B = excipient only
Excerpt: 24 pregnant, non-lactating, cross-bred beef cows within their last 40-80 days of gestation were randomly divided into 4 treatment groups with 6 animals in each group.

[5] = B = opposite quarter, excipient only
[6] = Group 1: total of 125 micrograms hEGF
[7] = Group 1: total of 125 micrograms hEGF, B = excipient only
[8] = Group 2: total of 1.25 milligrams hEGF
[9] = Group 2: total of 1.25 milligrams hEGF, B = excipient only
[10] = Group 1: total of 125 micrograms hEGF in Freund's emulsion
[11] = Group 2: total of 125 micrograms hEGF in sesame emulsion
[12] = Group 3: total of 12.5 micrograms hEGF in sesame emulsion
[13] = Group 4: total of 1.25 milligrams hEGF in sesame emulsion

hEGF: human EGF from G. D. Searle & Co., prepared by expression of recombinant DNA, purity above 90%
DNA, Mean Increase (A-B) [1, 5]: 84.5 mg | Dry Fat-Free Weight, Mean Increase (A-B) [1, 5]: 4.9 g | Dry Weight, % Increase, (A-B)/B [1, 5]: 7.7% | Wet Weight, Mean Increase (A-B) [1, 5]: 32.6 g | DNA, Treatment Mean ([1]; day 14): 794.5 mg | Dry Fat-Free Weight, Treatment Mean ([1]; day 14): 63.2 g | Dry Weight, Treatment Mean ([1]; day 14): 120.0 g | Wet Weight, Treatment Mean ([1]; day 14): 389.9 g | DNA, Avg % Increase/Animal ([1]; vs excipient-only quarter): 14.8% | Dry Fat-Free Weight, Avg % Increase/Animal ([1]; vs excipient-only quarter): 16.1% | Wet Weight, Avg % Increase/Animal ([1]; vs excipient-only quarter): 12.9% | Average milk production more than average of the 8 control cows [2]: 9.6 kg milk/day | Average milk production more than average of the 8 control cows, percent [2]: 34.8% | DNA, Treatment Mean [3, 6]: 396.9 mg | Dry Fat-Free Weight, Treatment Mean [3, 6]: 52.8 g | Dry Weight, Treatment Mean [3, 6]: 113.0 g | Wet Weight, Treatment Mean [3, 6]: 363.0 g | DNA, % Increase, (A-B)/B [3, 7]: 10.6% | DNA, Mean Increase (A-B) [3, 7]: 38.0 mg | Dry Fat-Free Weight, % Increase, (A-B)/B [3, 7]: 4.1% | Dry Fat-Free Weight, Mean Increase (A-B) [3, 7]: 2.1 g | Dry Weight, % Increase, (A-B)/B [3, 7]: 3.0% | Dry Weight, Mean Increase (A-B) [3, 7]: 3.3 g | Wet Weight, % Increase, (A-B)/B [3, 7]: 1.5% | DNA, Treatment Mean [3, 8]: 344.0 mg | Dry Fat-Free Weight, Treatment Mean [3, 8]: 63.8 g | Wet Weight, Treatment Mean [3, 8]: 392.5 g | Dry Fat-Free Weight, % Increase, (A-B)/B [3, 9]: 3.9% | Dry Fat-Free Weight, Mean Increase (A-B) [3, 9]: 2.4 g | Dry Weight, % Increase, (A-B)/B [3, 9]: 5.3% | Dry Weight, Mean Increase (A-B) [3, 9]: 6.3 g | Wet Weight, % Increase, (A-B)/B [3, 9]: 1.1% | Wet Weight, Mean Increase (A-B) [3, 9]: 4.3 g | DNA, Avg % Increase/Animal [4, 10]: 23.0% | DNA, Treatment Mean [4, 10]: 723.0 mg | Dry Fat-Free Weight, Avg % Increase/Animal [4, 10]: 8.3% | Dry Fat-Free Weight, Treatment Mean [4, 10]: 60.3 g | Dry Weight, Treatment Mean [4, 10]: 107.2 g | Wet Weight, Treatment Mean [4, 10]: 364.9 g | DNA, % Increase, (A-B)/B [4, 10]: 14.9% | DNA, Mean Increase (A-B) [4, 10]: 94.0 mg | Dry Fat-Free Weight, % Increase, (A-B)/B [4, 10]: 6.2% | Dry Fat-Free Weight, Mean Increase (A-B) [4, 10]: 3.5 g | Dry Weight, % Increase, (A-B)/B [4, 10]: 6.1% | Dry Weight, Mean Increase (A-B) [4, 10]: 6.2 g | Wet Weight, % Increase, (A-B)/B [4, 10]: 4.4% | Wet Weight, Mean Increase (A-B) [4, 10]: 15.4 g | DNA, Avg % Increase/Animal [4, 11]: 70.0% | DNA, Treatment Mean [4, 11]: 995.0 mg | Dry Fat-Free Weight, Avg % Increase/Animal [4, 11]: 15.9% | Dry Fat-Free Weight, Treatment Mean [4, 11]: 71.0 g | Dry Weight, Avg % Increase/Animal [4, 11]: 20.2% | Wet Weight, Avg % Increase/Animal [4, 11]: 10.4% | Wet Weight, Treatment Mean [4, 11]: 370.2 g | DNA, % Increase, (A-B)/B [4, 11]: 41.5% | DNA, Mean Increase (A-B) [4, 11]: 292.0 mg | Dry Fat-Free Weight, % Increase, (A-B)/B [4, 11]: 3.2% | Dry Fat-Free Weight, Mean Increase (A-B) [4, 11]: 2.2 g | Dry Weight, % Increase, (A-B)/B [4, 11]: 9.9% | Dry Weight, Mean Increase (A-B) [4, 11]: 11.0 g | Wet Weight, % Increase, (A-B)/B [4, 11]: 3.9% | Wet Weight, Mean Increase (A-B) [4, 11]: 14.0 g | DNA, Treatment Mean [4, 12]: 867.6 mg | Dry Fat-Free Weight, Avg % Increase/Animal [4, 12]: 16.3% | Dry Fat-Free Weight, Treatment Mean [4, 12]: 79.4 g | Dry Weight, Avg % Increase/Animal [4, 12]: 7.8% | Dry Weight, Treatment Mean [4, 12]: 132.4 g | Wet Weight, Avg % Increase/Animal [4, 12]: 0.6% | Wet Weight, Treatment Mean [4, 12]: 397.8 g | Dry Fat-Free Weight, Mean Increase (A-B) [4, 12]: 6.7 g | Dry Weight, % Increase, (A-B)/B [4, 12]: 4.2% | Dry Weight, Mean Increase (A-B) [4, 12]: 5.4 g | DNA, Avg % Increase/Animal [4, 13]: 1.6% | DNA, Treatment Mean [4, 13]: 733.2 mg | Dry Fat-Free Weight, Treatment Mean [4, 13]: 81.7 g | Dry Weight, Treatment Mean [4, 13]: 131.5 g | Wet Weight, Avg % Increase/Animal [4, 13]: 9.9% | Wet Weight, Treatment Mean [4, 13]: 391.9 g | DNA, % Increase, (A-B)/B [4, 13]: 0.5% | DNA, Mean Increase (A-B) [4, 13]: 4.0 mg | Dry Fat-Free Weight, Mean Increase (A-B) [4, 13]: 6.6 g | Dry Weight, Mean Increase (A-B) [4, 13]: 13.6 g | Wet Weight, Mean Increase (A-B) [4, 13]: 31.7 g
